Values quoted from earlier work as cited in patent US20080306035A1, “Methods and Compositions for Treating Female Infertility Using Clomiphene” (priority 2005, published 2008).
Structures can show the parent of a compound that is named as a salt.

Experiments:
[1] = in vivo

| Molecule | patients treated who achieve pregnancy (patients treated with clomiphene citrate, London et al. 1999) | ovulation, share of patients (up to 100 mg clomiphene citrate for 5 days per cycle) | effect on uterine blood flow [1] |
| --- | --- | --- | --- |
| CCN(CC)CCOc1ccc(C(=C(Cl)c2ccccc2)c2ccccc2)cc1 [clomiphene citrate] | 25-40% | about 70% |  |
| cis-clomiphene |  |  | raise uterine blood flow |
| trans-clomiphene |  |  | raise uterine blood flow |
